Reference: patent publication US20150299143A1, “SUBSTITUTED TRIAZOLE AND IMIDAZOLE COMPOUNDS” (HOFFMANN-LA ROCHE INC., priority 2012, published 2015)

Tests used:
[1] = target: T1, β 5i (chymotrypsin-like activity) (Homo sapiens, UniProt P20618+P28062); assay: Cell-Based Proteasome subunit activity/selectivity assay, β5i, substrate (ANW)2Rh110; settings: Ramos cells; substrate (ANW)2Rh110 (β5i); highest concentration tested 20 μM; read-out: Ic50:ramos:ac-(anw)2-r110
T1 construct: protease activity associated with the proteasome complex in cultured cells; endogenous in cells; host or cells: Ramos cells
Text: (§1) Cell-Based Proteasome Activity/Selectivity Assay
(§2) The Cell-Based Proteasome subunit activity/selectivity assay was a panel of 5 fluorogenic assays that independently measured the activity of β5c or β 5i (chymotrypsin-like activity), β 2c/2i (trypsin-like), and β 1c or β 1i (caspase-like) protease activity associated with the proteasome complex in cultured cells. Specifically, the following substrates were used for respective subunit activities: β 1i (PAL)2Rh110, β 1c: (LLE)2 Rh110, β 2c/2i: (KQL)2Rh110, β 5c: (WLA)2Rh110, β 5i: (ANW)2Rh110. The following procedure was followed:
(§3) Added 0.5 μl of 100× 4-fold serial diluted test compounds or DMSO to each well. Highest concentration of compound tested was 20 μM, thus compound serial dilution started from […]. Incubated for 30 minutes at 37° C. Then equilibrated at room temperature for 15 minutes. […] Shaked for one minute @ 700 rpm. Incubated for 120 min at room temperature. Then read the plates with an Envision multilabel plate reader (PerkinElmer) with 500 nm excitation/519 nm emission.

[2] = target: T2, β5c (chymotrypsin-like activity) (Homo sapiens, UniProt P20618+P28074); assay: Cell-Based Proteasome subunit activity/selectivity assay, β5c, substrate (WLA)2Rh110; settings: Ramos cells; substrate (WLA)2Rh110 (β5c); highest concentration tested 20 μM; read-out: Ic50:ramos:rh110-(wla)2
T2 construct: protease activity associated with the proteasome complex in cultured cells; endogenous in cells; host or cells: Ramos cells
Text: as §1, §2, §3

[3] = system: β 2c/2i (trypsin-like); assay: Cell-Based Proteasome subunit activity/selectivity assay, β2c/2i, substrate (KQL)2Rh110; settings: Ramos cells; substrate (KQL)2Rh110 (β2c/2i); highest concentration tested 20 μM
Text: as §1, §2, §3

[4] = target: T3, β 1i (caspase-like) (Homo sapiens, UniProt P28065+P40306); assay: Cell-Based Proteasome subunit activity/selectivity assay, β1i, substrate (PAL)2Rh110; settings: Ramos cells; substrate (PAL)2Rh110 (β1i); highest concentration tested 20 μM; read-out: Ic50:ramos:rh110-(pal)2
T3 construct: protease activity associated with the proteasome complex in cultured cells; endogenous in cells; host or cells: Ramos cells
Text: as §1, §2, §3

[5] = target: T4, β 1c (caspase-like) (Homo sapiens, UniProt P28072+Q99436); assay: Cell-Based Proteasome subunit activity/selectivity assay, β1c, substrate (LLE)2Rh110; settings: Ramos cells; substrate (LLE)2Rh110 (β1c); highest concentration tested 20 μM; read-out: Ic50:ramos:rh110-(lle)2
T4 construct: protease activity associated with the proteasome complex in cultured cells; endogenous in cells; host or cells: Ramos cells
Text: as §1, §2, §3

| IC50 [1] [µM] | IC50 [2] [µM] | IC50 [3] [µM] | IC50 [4] [µM] | IC50 [5] [µM] | Structure (SMILES) |
| --- | --- | --- | --- | --- | --- |
| 2.47 | 8.55 | ≥ 20 | ≥ 20 | ≥ 20 | CCc1ccc(C(C#N)NC(=O)c2cn(CC/N=C(\SC)c3ccc(OC)c(OC)c3OC)nn2)cc1 (stereo not shown) [Example 87, N-[2-(4-{[Cyano-(4-ethyl-phenyl)-methyl]-carbamoyl}-[1,2,3]triazol-1-yl)-ethyl]-2,3,4-trimethoxy-thiobenzimidic acid methyl ester] |
| 4.29 | ≥ 20 | ≥ 20 | ≥ 20 | ≥ 20 | CCc1ccc(C(C#N)NC(=O)c2cn(CCNC(=O)CC3Cc4ccccc4C3)nn2)cc1 (stereo not shown) [Example 9, 1-[2-(2-Indan-2-yl-acetylamino)-ethyl]-1H-[1,2,3]triazole-4-carboxylic acid [cyano-(4-ethyl-phenyl)-methyl]-amide] |
| 0.054 | ≥ 20 | ≥ 20 | ≥ 20 | ≥ 20 | CCc1ccc(C(C#N)NC(=O)c2nc(CCNC(=O)c3ccc(OC)c(OC)c3OC)n[nH]2)cc1 (stereo not shown) [Example 89, 5-[2-(2,3,4-Trimethoxy-benzoylamino)-ethyl]-2H-[1,2,4]triazole-3-carboxylic acid [cyano-(4-ethyl-phenyl)-methyl]-amide] |
| 0.054 | ≥ 20 | ≥ 20 | ≥ 20 | ≥ 20 | CCc1ccc(C(C#N)NC(=O)c2nc(CCNC(=O)c3ccc(C(F)(F)F)cc3F)n[nH]2)cc1 (stereo not shown) [Example 91, 5-[2-(2-Fluoro-4-trifluoromethyl-benzoylamino)-ethyl]-2H-[1,2,4]triazole-3-carboxylic acid [cyano-(4-ethyl-phenyl)-methyl]-amide] |
| 0.259 | ≥ 20 | ≥ 20 | ≥ 20 | ≥ 20 | CCc1ccc(C(C#N)NC(=O)c2cn(CCNC(=O)c3ccc(C)nc3OC)nn2)cc1 (stereo not shown) [Example 34, N-[2-(4-{[Cyano-(4-ethyl-phenyl)-methyl]-carbamoyl}-[1,2,3]triazol-1-yl)-ethyl]-2-methoxy-6-methyl-nicotinamide] |
| 0.163 | ≥ 20 | ≥ 20 | ≥ 20 | ≥ 20 | O=C(N[C@@H](CCc1ccccc1)C(=O)O)c1cn(CCNC(=O)c2ccc(C(F)(F)F)cc2F)nn1 [Example 82, (S)-2-({1-[2-(2-Fluoro-4-trifluoromethyl-benzoylamino)-ethyl]-1H-[1,2,3]triazole-4-carbonyl}-amino)-4-phenyl-butyric acid] |
| 0.779 | ≥ 20 | ≥ 20 | ≥ 20 | ≥ 20 | CCc1ccc(C(C#N)NC(=O)c2cn(CCNC(=O)c3ccccc3OC(F)(F)F)nn2)cc1 (stereo not shown) [Example 24, 1-[2-(2-Trifluoromethoxy-benzoylamino)-ethyl]-1H-[1,2,3]triazole-4-carboxylic acid [cyano-(4-ethyl-phenyl)-methyl]-amide] |
| 4.02 | ≥ 20 | ≥ 20 | ≥ 20 | ≥ 20 | COc1ccc(C(=O)NCCn2cc(C(=O)NC(C#N)c3cccc(SC)c3)nn2)c(OC)c1OC (stereo not shown) [Example 55, 1-[2-(2,3,4-Trimethoxy-benzoylamino)-ethyl]-1H-[1,2,3]triazole-4-carboxylic acid [cyano-(3-methylsulfanyl-phenyl)-methyl]-amide] |
| 0.886 | ≥ 20 | ≥ 20 | ≥ 20 | ≥ 20 | COc1ccc(C(=O)NCCn2cc(C(=O)NC(C#N)c3ccc(OC(F)(F)F)cc3)nn2)c(OC)c1OC (stereo not shown) [Example 10, 1-[2-(2,3,4-Trimethoxy-benzoylamino)-ethyl]-1H-[1,2,3]triazole-4-carboxylic acid [cyano-(4-trifluoromethoxy-phenyl)-methyl]-amide] |
| 4.11 | ≥ 20 | ≥ 20 | ≥ 20 | ≥ 20 | COc1ccc(C(=O)NCCn2cc(C(=O)NCc3ccc(C)c(C)c3)nn2)c(OC)c1OC [Example 4, 1-[2-(2,3,4-Trimethoxy-benzoylamino)-ethyl]-1H-[1,2,3]triazole-4-carboxylic acid 3,4-dimethyl-benzylamide] |
| 0.423 | ≥ 20 | ≥ 20 | ≥ 20 | ≥ 20 | COc1ccc(C(C#N)NC(=O)c2cn(CCNC(=O)c3ccc(OC)c(OC)c3OC)nn2)cc1 (stereo not shown) [Example 8, 1-[2-(2,3,4-Trimethoxy-benzoylamino)-ethyl]-1H-[1,2,3]triazole-4-carboxylic acid [cyano-(4-methoxy-phenyl)-methyl]-amide] |
| 0.795 | ≥ 20 | ≥ 20 | ≥ 20 | ≥ 20 | COc1ccc(C(=O)NCCn2cc(C(=O)NC(C#N)c3ccc4ccsc4c3)nn2)c(OC)c1OC (stereo not shown) [Example 66, 1-[2-(2,3,4-Trimethoxy-benzoylamino)-ethyl]-1H-[1,2,3]triazole-4-carboxylic acid (benzo[b]thiophen-6-yl-cyano-methyl)-amide] |
| 5.59 | ≥ 20 | ≥ 20 | ≥ 20 | ≥ 20 | COc1cc(OC(F)(F)F)ccc1C(=O)NCCn1cc(C(=O)NC(C#N)c2ccc(C(F)(F)F)cc2)nn1 (stereo not shown) [Example 71, 1-[2-(2-Methoxy-4-trifluoromethoxy-benzoylamino)-ethyl]-1H-[1,2,3]triazole-4-carboxylic acid [cyano-(4-trifluoromethyl-phenyl)-methyl]-amide] |
| 0.072 | ≥ 20 | ≥ 20 | ≥ 20 | ≥ 20 | CCc1ccc(C(C#N)NC(=O)c2cn(CCNC(=O)C3=C(C)c4ccccc4C3)nn2)cc1 (stereo not shown) [Example 25, 1-{2-[(3-Methyl-1H-indene-2-carbonyl)-amino]-ethyl}-1H-[1,2,3]triazole-4-carboxylic acid [cyano-(4-ethyl-phenyl)-methyl]-amide] |
| 0.447 | ≥ 20 | ≥ 20 | ≥ 20 | ≥ 20 | CCOC(=O)[C@H](CCc1ccccc1)NC(=O)c1cn(CCNC(=O)c2ccc(OC)c(OC)c2OC)nn1 [Example 80, (S)-4-Phenyl-2-({1-[2-(2,3,4-trimethoxy-benzoylamino)-ethyl]-1H-[1,2,3]triazole-4-carbonyl}-amino)-butyric acid ethyl ester] |
| 0.159 | 3.39 | ≥ 20 | 0.976 | ≥ 20 | CC(CCc1ccccc1)NC(=O)c1cn(CCNC(=O)c2ccc(C(F)(F)F)cc2F)nn1 (stereo not shown) [Example 79, 1-[2-(2-Fluoro-4-trifluoromethyl-benzoylamino)-ethyl]-1H-[1,2,3]triazole-4-carboxylic acid (1-methyl-3-phenyl-propyl)-amide] |
| 1.16 | ≥ 20 | ≥ 20 | ≥ 20 | ≥ 20 | CCc1ccc(CNC(=O)c2cn(CCNC(=O)c3ccc(OC)c(OC)c3OC)nn2)cc1 [Example 7, 1-[2-(2,3,4-Trimethoxy-benzoylamino)-ethyl]-1H-[1,2,3]triazole-4-carboxylic acid 4-ethyl-benzylamide] |
| 0.162 | ≥ 20 | ≥ 20 | ≥ 20 | ≥ 20 | COC(=O)[C@H](Cc1cc2ccccc2[nH]1)NC(=O)c1cn(CCNC(=O)c2ccc(C(F)(F)F)cc2F)nn1 [Example 84, (S)-2-({1-[2-(2-Fluoro-4-trifluoromethyl-benzoylamino)-ethyl]-1H-[1,2,3]triazole-4-carbonyl}-amino)-3-(1H-indol-2-yl)-propionic acid methyl ester] |
| 1.43 | 6.21 | ≥ 20 | ≥ 20 | ≥ 20 | CCc1ccc(C(C#N)NC(=O)c2cn(CCNC(=O)c3ccc(Oc4ccc(Cl)cc4)cn3)nn2)cc1 (stereo not shown) [Example 43, 5-(4-Chloro-phenoxy)-pyridine-2-carboxylic acid [2-(4-{[cyano-(4-ethyl-phenyl)-methyl]-carbamoyl}-[1,2,3]triazol-1-yl)-ethyl]-amide] |
| 0.947 | ≥ 20 | ≥ 20 | ≥ 20 | 17.8 | COc1ccc(C(C#N)NC(=O)c2cn(CCNC(=O)c3ccc(OC)c(OC)c3OC)nn2)cn1 (stereo not shown) [Example 65, 1-[2-(2,3,4-Trimethoxy-benzoylamino)-ethyl]-1H-[1,2,3]triazole-4-carboxylic acid [cyano-(6-methoxy-pyridin-3-yl)-methyl]-amide] |
